Assay results as given in US10894036B2, “Use of marizomib for the treatment of central nervous system (CNS) cancers” (Celgene International II Sàrl, priority 2016, dated 2021).
Entries after “also recorded” stand apart in the source; their conditions may differ.

Tests used:
[1] = BEV serum pharmacokinetics (Phase 1 MRZ + BEV); format: in vivo, human; settings: for BEV pharmacokinetic parameters: effect of co-administration: with MRZ
Procedure: The drugs were infused on 28-Day Cycles. Tumor response is assessed every other cycle by RANO criteria.

[2] = tested on: trypsin-like (T-L) proteasome activity; experiment: Proteasome inhibition in packed whole blood: T-L; format: in vivo, human; settings: for compensatory hyperactivation of T-L and C-L proteasome subunits: repeated dosing
From the text: (§1) The drugs were infused on 28-Day Cycles.
(§2) Change in proteasome activities in packed whole blood (PWB) lysates and peripheral blood mononuclear cell (PBMC) lysates, comparing pre-drug and post drug levels on Days 1, 8, and 15 of Cycle 1; Days 1 and 15 of each Cycle thereafter; and at the End-of Treatment Visit.
(§3) The laboratory correlates include assessment of the percentage inhibition of proteasome function (evaluated by measurement of CT-L, T-L and C-L activity in blood isolates such as whole blood and PBMC lysates.
(§4) PD analysis will include change in proteasome activities (whole blood lysates and PBMC lysates) by comparing pre-drug and post drug levels on Days 1, 8, and 15 (i.e., for each dose) of Cycle 1 and Days 1 and 15 (i.e., for the first and last doses) of each cycle thereafter.

[3] = tested on: chymotrypsin-like (CT-L) proteasome activity; experiment: Proteasome inhibition in packed whole blood: CT-L; format: in vivo, human
From the text: as §1, §2, §3, §4

[4] = target: T1, caspase-like (C-L) proteasome activity (Homo sapiens, UniProt P28072); experiment: Proteasome inhibition in packed whole blood: C-L; format: in vivo; settings: PWB post-Marizomib infusion (peak effect)
T1 construct: Change in proteasome activities in packed whole blood (PWB) lysates and peripheral blood mononuclear cell (PBMC) lysates; from tissue; host or cells: packed whole blood lysates of dosed glioma patients
From the text: as §1, §2, §3, §4

D54MG cells = experiment: Intracranial GBM xenograft survival; format: in vivo; settings: athymic BALB/c nu/nu mice, MRZ IV twice weekly
Procedure: 1×10^5 D54MG cells implanted into right frontal lobes of athymic BALB/c nu/nu mice. MRZ administered IV twice weekly.

[5] = tested on: WHO Grade IV Malignant Glioma; experiment: Phase 1/2 MRZ + BEV and MRZ monotherapy in recurrent G4 MG: tumor response by RANO, PFS, OS; format: in vivo, human; settings: for Best Response NE (2), patients: MRZ monotherapy ITT
From the text: as §1
Tumor response, including PD activity, progression-free survival (PFS), and overall survival (OS) will be assessed. Tumor response will be assessed by the Investigators using RANO 2010 criteria. The overall confirmed response rate will be presented. The response rate, PFS, and OS will also be tabulated by dose cohorts in Part 1 Phase 1 and for all response-evaluable patients in Part 2 Phase 2 and Part 3 Phase 2. Endpoints of response based on tumor assessments will be calculated for subjects who received at least 3 doses of MRZ and had at least 1 post-dose tumor evaluation.

[6] = BEV 10 mg/kg IV, serum, C1D15, marizomib 0.7 mg/m^2 cohort
[7] = BEV 10 mg/kg IV, serum, C1D15, marizomib 0.8 mg/m^2 cohort
[8] = BEV 10 mg/kg IV, serum, C1D15, marizomib […]^2 cohort
[9] = BEV PK, C1D15, MRZ 0.7 mg/m^2 cohort (17 May 2016)
[10] = BEV PK, C1D15, MRZ 0.7 mg/m^2 cohort (Table 43)
[11] = BEV PK, C1D15, MRZ 0.8 mg/m^2 cohort (17 May 2016)
[12] = BEV PK, C1D15, MRZ 0.8 mg/m^2 cohort (Table 43)
[13] = across all dose cohorts, BEV 10 mg/kg with MRZ
[14] = PWB post-MRZ infusion (peak effect), 0.7 mg/m^2 (17 May 2016)
[15] = MRZ + BEV N = 10, MRZ monotherapy N = 7
[16] = MRZ + BEV N = 22, MRZ monotherapy N = 18
[17] = MRZ monotherapy 0.8 mg/m^2, first 15 recurrent glioma patients

For bevacizumab [reference compound], the “Cmax D1” value ([1]; BEV 10 mg/kg IV, serum, C1D1, marizomib 0.7 mg/m^2 cohort) was 193 ± 8 (2) μg/mL, the “Cmax D1” value ([1]; BEV 10 mg/kg IV, serum, C1D1, marizomib 0.8 mg/m^2 cohort) was 267 ± 13.3 (3) μg/mL and the “Cmax D1” value ([1]; BEV 10 mg/kg IV, serum, C1D1, marizomib […]^2 cohort) was 275 ± 37.5 (6) μg/mL. For the same compound, the “Cmax D15” value [1, 6] was 402 ± 123 (3) μg/mL, the “Cmin D15” value [1, 6] was 81.1 ± 17.4 (2) μg/mL and the “Cmax D15” value [1, 7] was 380 ± 56.5 (2) μg/mL. For the same compound, the “Cmin D15” value [1, 7] was 85.0 ± 9.87 (3) μg/mL, the “Cmax D15” value [1, 8] was 351 ± 46.6 (5) μg/mL and the “Cmin D15” value [1, 8] was 89.7 ± 6.2 (6) μg/mL. The “Cmax D1” value ([1]; BEV PK, C1D1, MRZ 0.7 mg/m^2 cohort (17 May 2016)) was 282 ± 89 (3) μg/mL, the “Cmax D1” value ([1]; BEV PK, C1D1, MRZ 0.7 mg/m^2 cohort (Table 43)) was 193 ± 8 (2) μg/mL and the “Cmax D1” value ([1]; BEV PK, C1D1, MRZ 0.8 mg/m^2 cohort (17 May 2016)) was 267 ± 133 (3) μg/mL. The “Cmax D1” value ([1]; BEV PK, C1D1, MRZ 0.8 mg/m^2 cohort (Table 43)) was 267 ± 13.3 (3) μg/mL, the “Cmax D15” value [1, 9] was 402 ± 123 (3) μg/mL and the “Cmin D15” value [1, 9] was 114 ± 34 (3) μg/mL. For the same compound, the “Cmax D15” value [1, 10] was 402 ± 123 (3) μg/mL, the “Cmin D15” value [1, 10] was 81.1 ± 17.4 (2) μg/mL and the “Cmax D15” value [1, 11] was 404 ± 40 (3) μg/mL. The “Cmin D15” value [1, 11] was 85 ± 9.9 (3) μg/mL, the “Cmax D15” value [1, 12] was 380 ± 56.5 (2) μg/mL and the “Cmin D15” value [1, 12] was 85.0 ± 9.87 (3) μg/mL. For the same compound, the “Mean Day 15 Cmax of BEV” value ([1]; Study 108, BEV 10 mg/kg with MRZ) was 379 µg/mL, the “mean Cmax of bevacizumab on Day 1” value [1, 13] was 275 µg/mL and the “mean Cmax of bevacizumab on Day 1 (second value so printed)” value [1, 13] was 379 µg/mL. The “mean Cmin of bevacizumab on Day 15” value [1, 13] was 95 µg/mL, the “BEV pharmacokinetic parameters: effect of co-administration” value [1] was “not affected by co-administration” and the “BEV pharmacokinetic parameters: effect of co-administration” value ([1]; listed as BEV) was “no effect of MRZ on BEV pharmacokinetics; also recorded: not affected by co-administration of MRZ”.
With `C[C@@]12OC(=O)[C@]1([C@@H](O)[C@@H]1C=CCCC1)NC(=O)[C@@H]2CCCl` [marizomib] the “% T-L inhibition” value [2, 14] was 77.3 ± 10.5 (3) %, the “compensatory hyperactivation of T-L and C-L proteasome subunits” value [2] was “overcome compensatory hyperactivation of proteasome subunits; also recorded: overcomes compensatory hyperactivation” and the “compensatory hyperactivation of T-L and C-L proteasome subunits” value ([2]; listed as MRZ) was “overcomes compensatory hyperactivation of proteasome subunits”. For the same compound, the “% CT-L inhibition” value [3, 14] was 100 ± 0 (3) %, the “% CT-L inhibition” value ([3]; PWB post-Marizomib infusion (peak effect), 0.7 mg/m^2) was 100 ± 0 (3) % and the “% CT-L inhibition” value ([3]; PWB post-Marizomib infusion (peak effect), 0.8 mg/m^2) was 100 ± 0 (3) %. For the same compound, the “sustained inhibition of the CT-L domain, pre-infusion” value ([3]; packed whole blood, up to two weeks after marizomib dosing) was 60-80%, the inhibition at […]2 ([4]; 0.55 mg/m^2) was 21 ± 7.8% and the inhibition at 0.7 mg/m2 ([4]; 0.7 mg/m^2) was 50.4 ± 9.1%. The inhibition at 0.8 mg/m2 ([4]; 0.8 mg/m^2) was 51.9 ± 8.3%, the “activity in intracranial GBM xenograft” value (D54MG cells) was “Active” and the “OS 6 mo %” value ([5]; All Patients) was 64%. For the same compound, the “OS 9 mo %” value ([5]; All Patients) was 64%, the “Median OS, methylated MGMT promoter” value [5, 15] was “Undefined” and the “Median PFS, methylated MGMT promoter” value [5, 15] was 1.7 Months. For the same compound, the “OS 6 Months, methylated” value [5, 15] was 83%, the “OS 9 Months, methylated” value [5, 15] was 83% and the “Median OS, unmethylated MGMT promoter” value [5, 16] was “Undefined”. The “Median PFS, unmethylated MGMT promoter” value [5, 16] was 1.9 Months, the “OS 6 Months, unmethylated” value [5, 16] was 65% and the “OS 9 Months, unmethylated” value [5, 16] was 65%. The “partial remission, patients” value [5, 17] was 1, the “stable disease, additional patients” value [5, 17] was 2 and the “Best Response NE (2), patients” value ([5]; methylated, N = 7) was 0. The “Best Response NE (2), patients” value ([5]; unknown, N = 5) was 1, the “Best Response NE (2), patients” value ([5]; unmethylated, N = 18) was 1 and the “PFS 3 mo, methylated” value ([5]; MRZ monotherapy, N = 7) was 40%. The “PFS 3 mo, unmethylated” value ([5]; MRZ monotherapy, N = 18) was 20%, the “patients on the study for ≥4 cycles” value ([5]; MRZ monotherapy, N = 30) was “Six” and the “progression on marizomib alone” value ([5]; MRZ monotherapy, N = 30) was “most patients demonstrated rapid progression”. For the same compound, the “Best Response, Pt 0511” value ([5]; MRZ monotherapy, 2nd recurrence, current cycle 10) was “PR (≥50% decrease compared with baseline in the sum of products of perpendicular diameters of all measurable enhancing lesions sustained for at least 4 weeks)”, the “OS 6 mo %” value ([5]; Methylated MGMT Promoter) was 83% and the “OS 9 mo %” value ([5]; Methylated MGMT Promoter) was 83%. For the same compound, the “OS 6 mo %” value ([5]; Unmethylated MGMT Promoter) was 65%, the “OS 9 mo %” value ([5]; Unmethylated MGMT Promoter) was 65% and the “patients found to respond to marizomib monotherapy” value ([5]; ≥ stable disease and >4 cycles (Table 38)) was “four”.
